Measured values from article PMC2131757 (BMC Neuroscience, 2007).

Columns and labels:
Format in all cases: cell-based, murine
[1] = test system: cPLA2 in NB4 1A3 neuroblastoma cells
[2] = test system: COX-1 in NB4 1A3 neuroblastoma cells
[3] = test system: NB4 1A3 neuroblastoma cells; settings: n = 6
[4] = test system: NB4 1A3 neuroblastoma cells
[5] = test system: NB4 1A3 neuroblastoma cells; remark: listed apart in the source
NB4 neuroblastoma cells = test system: NB4 neuroblastoma cells
[6] = test system: NB4 1A3 neuroblastoma cells; remark: listed apart in the source

Compound | % of MoPrP105-132 co-localised with cPLA2 in Hexa-PAF-treated cells [1] | % of MoPrP105-132 co-localised with COX-1 in Hexa-PAF-treated cells [2] | cell associated fluorescence (mean fluorescence intensity) of ingested MoPrP105-132 in squalestatin treated cells [3] [arbitrary units] | membrane fraction in which MoPrP105-132 is found (raft / non-raft) in squalestatin-treated cells [4] | % of MoPrP105-132 co-localised with CTxB in squalestatin-treated cells [5] | % of MoPrP105-132 co-localised with GM130 (Golgi) in squalestatin-treated cells [5] | % of MoPrP105-132 co-localised with Grp78 (ER) in squalestatin-treated cells [5] | % of MoPrP105-132 co-localised with LAMP-1 (lysosomes) in squalestatin-treated cells [5] | % of MoPrP105-132 co-localised with TfR (early endosomes) in squalestatin-treated cells [5] | % of MoPrP105-132 co-localised with caveolin-1 in squalestatin-treated cells [5] | effect of squalestatin treatment on MoPrP105-132 induced neurotoxicity (NB4 neuroblastoma cells) | % of MoPrP105-132 co-localised with cPLA2 in squalestatin-treated cells [1] | % of MoPrP105-132 co-localised with COX-1 in squalestatin-treated cells [2] | endosomal fraction in which MoPrP105-132 is detected in squalestatin-treated cells [6]
1-O-alkyl-2-acetyl-sn-glycerol-3-phospho-(N,N,N-trimethyl)-hexanolamine [Hexa-PAF] | 22% ± 6 | 13% ± 3 | – | – | – | – | – | – | – | – | – | – | – | –
C=C(CC[C@]12O[C@H](C(=O)O)[C@@](O)(C(=O)O)[C@](C(=O)O)(O1)[C@H](OC(=O)/C=C/[C@@H](C)C[C@@H](C)CC)[C@H]2O)[C@@H](OC(C)=O)[C@H](C)Cc1ccccc1 [Squalestatin, squalestatin] | – | – | 25.3 ± 4 | most of the MoPrP105-132 was detected in the non-raft fraction | 5% ± 1 | 7% ± 2 | 3% ± 2 | 40% ± 6 | 68% ± 8 | 9% ± 3 | prevent peptide-induced neurotoxicity | 13% ± 4 | 5% ± 5 | detected in the LAMP-1 positive, TfR negative, lysosomal fraction
